Data as given in publication PMC10654779, “Development of a fibroblast activation protein-targeted PET/NIR dual-modality probe and its application in head and neck cancer” (Frontiers in Bioengineering and Biotechnology, 2023).

Assays:
[1] = Optical properties (UV/Vis absorbance and fluorescence emission spectra); format: physicochemical; settings: 10 μM in PBS, diluted from 1 mM DMSO
Method: The ultraviolet absorption spectra of FAP-2286-ICG were collected using a UV/Vis spectrophotometer (DU-730, BeckMan Coulter). Fluorescence spectra were collected using a fluorescence spectrometer (FLS980, Edinburgh instruments). FAP-2286-ICG and ICG were dissolved in DMSO at a concentration of 1 mM before being diluted with PBS to a final concentration of 10 μΜ, respectively. The absorbance spectra were taken between 600 and 1100 nm. The emission spectra were recorded in the 790–860 nm range at an excitation wavelength of 770 nm. The concentration dependence of fluorescence intensity of FAP-2286-ICG was assessed with different concentrations of FAP-2286-ICG (0–100 μM). The fluorescent images were collected using a small animal fluorescence imaging system (VISQUE InVivo Smart-LF, Vieworks Co., Ltd) and analyzed using CleVue™ software (Vieworks Co., Ltd).

[2] = test system: U87MG cells; experiment: Cellular retention by fluorescence imaging; format: cell-based, human; settings: 3 μM (based on ICG), 37 °C, 24 h incubation, n = 5
Method: (§1) For the cellular uptake study, U87MG cells (2×10^5 cells/well) were seeded in 24-well plates and incubated at 37°C for 24 h before the experiments (five replicate wells per group). After removing the medium and washing the cells with fresh medium, the cells in each well were treated with DMEM medium containing 0.74 MBq [^68Ga]Ga-FAP-2286-ICG at 37°C for 30, 60, and 120 min. After removing the medium, the cells were washed twice with cold PBS, lysed with NaOH (1 M) twice (0.5 mL/well), and collected. The bound activity was measured with a γ-counter. For the blocking study, a 100-fold excess of the non-radiolabeled precursor was added before treating the cells with [^68Ga]Ga-FAP-2286-ICG. Subsequent experimental procedure and condition were the same as the aforementioned cellular uptake assay. To further verify whether the introduction of ICG affected the targeting of the precursor, [^68Ga]Ga-FAP-2286 was incubated with U87MG cells for 2 h as a control group. Additionally, the retention effect of probe on the tumor was verified. Briefly, U87MG cells were incubated with DMEM medium containing approximately 3 μM (based on the content of ICG) FAP-2286-ICG or ICG at 37 °C for 2, 4, 8, and 24 h. After discarding the medium, the cells were washed three times with PBS and imaged using a small animal FI system with ICG mode to quantify the fluorescent signal.

[3] = test system: U87MG xenografts; experiment: NIR fluorescence imaging of U87MG tumor-bearing mice; format: in vivo; settings: 0.5-72 h post-injection, n = 3
Method: FI was performed using a small animal FI system with ICG mode: The NIR filter set (Excitation: 740–790 nm; Emission: 810–860 nm) was used for ICG fluorescence. The fluorescence intensity was calculated by the mean fluorescence intensity (MFI).
To evaluate the optimal imaging time window, NIR fluorescence images of U87MG tumor-bearing mice were collected at different time points (0.5, 1, 2, 24, 48, and 72 h) post-injection of FAP-2286-ICG (3.16 μg, 1.37 nmol). Following in vivo FI, mice were euthanized, and their xenografts and major organs were harvested for in vitro FI analysis. The ROIs were drawn manually in the tumor and organs on the fluorescence image to account for the distribution of FAP-2286-ICG in the tissue. MFI levels from organs and the TBRs using tumor/muscle values were evaluated.

[4] = human; no reference given; cited from earlier work
Source text: Novel methodologies employing dual-labeled probes aid the surgeon by allowing for more streamlined preoperative planning via PET/CT or PET/MRI and accurate intraoperative navigation guidance.

[5] = in vitro; format: in vitro ADME
Method: The radiochemical purity (RCP) of [^68Ga]Ga-FAP-2286-ICG was assessed using radio instant thin-layer chromatography (Radio-iTLC). Glass microfiber chromatography paper impregnated with a silica gel served as the stationary phase and methanol and 0.25 M sodium acetate (1:1, v/v) as the mobile phase.
The in vitro stability of [^68Ga]Ga-FAP-2286-ICG was assessed by co-culture with 0.01 M PBS and FBS at a concentration of 10% (w/w), respectively, and the mixtures were incubated at 37°C for 0.5, 1, and 2 h.

[6] = format: physicochemical; settings: pH 7.4
Method: The octanol-water partition coefficient of [^68Ga]Ga-FAP-2286-ICG was detected by mixing 10 μL of freshly prepared [^68Ga]Ga-FAP-2286-ICG with 490 μL of PBS (0.1 M, pH 7.4) and 500 μL of n-octanol in a centrifuge tube. The mixture was vortexed for 3 min and centrifuged at 3,000 × rpm for 5 min for layer separation. An aliquot of the aqueous and n-octanol layers was separately collected and measured by γ counter (GC-2101, PET Co., Ltd). Log p values were calculated using the formula: log P = log(total counts in octanol/total counts in PBS).

[7] = test system: U87MG cells; experiment: Cellular uptake study (radioactivity, γ-counter); format: cell-based, human
Method: as §1

[8] = in vivo; format: in vivo, mice; settings: female, BALB/c nude, mouse, in vivo, iv, total radioactivity
Method: (§2) All animal studies were performed according to the protocols approved by the Animal Welfare Ethics Committee of Shanghai Fourth People’s Hospital. Six to eight-week-old female BALB/c nude mice were purchased from Beijing Vital River Laboratory Animal Technology Co., Ltd. To establish cell-derived xenograft (CDX) models, the mice were implanted subcutaneously in the flanks with 5 × 10^6 U87MG cells in PBS containing 50% Matrigel. HNSCC cell lines (FaDu, CAL27, and CNE2) were inoculated subcutaneously on the right flanks of nude mice. The diameter of each tumor was determined and documented every 2–3 days. When the tumor reached 300–400 mm^3, the mice were used for the imaging study. The U87MG tumor-bearing mice were used to study the in vivo targeting, biodistribution, and optimal FI time window of [^68Ga]Ga-FAP-2286-ICG. HNSCC tumor-bearing mice were used to evaluate the feasibility of [^68Ga]Ga-FAP-2286-ICG for tumor localization and guided surgical resection of HNSCC tumors.
(§3) PET/CT imaging was performed in U87MG tumor-bearing mice to assess the tumor-targeting efficiency and biodistribution of [^68Ga]Ga-FAP-2286-ICG in vivo. The mice were injected with 10 MBq (1 nmol) of [^68Ga]Ga-FAP-2286-ICG through the tail vein, and images were performed at 30, 60, and 90 min after injection. The blocking group was pre-injected with the 50-fold molar excess of non-radiolabeled precursor 1 h in advance.

[9] = test system: U87MG xenografts; experiment: in vivo; format: in vivo, mice; settings: for SUVmax of the tumor: U87MG tumor-bearing mice, 10 MBq (1 nmol) i.v.
Method: as §2, §3

[10] = test system: BALB/c mice; experiment: Toxicity study in BALB/c mice; format: in vivo
Method: The BALB/c mice were sacrificed and collected from the heart, liver, spleen, lung, and kidney to determine toxicity with hematoxylin and eosin (H&E) staining. The serum was collected to measure the levels of aspartate aminotransferase (AST), alanine aminotransferase (ALT), and blood urea nitrogen (UREA). Body weight was recorded every 5 days up to 20 days postinjection. The mice with intravenous injections of saline served as a control group.

SMILES	NIR-I fluorescence emission peak ([1]; excitation 770 nm, 790-860 nm) [nm]	absorption peak ([1]; spectra 600-1100 nm) [nm]	fluorescent signal retained by cells [2]	fluorescence signal in the tumor site [3]	clinically safe dose [4] [mg/kg]	RCP after incubation in PBS [5]	remaining at 2 h ([5]; serum) [%]	partition coefficient log P [6]	cellular uptake ([7]; 0.74 MBq, 37°C, 60 min, five replicate wells)	cellular uptake, blocked ([7]; 60 min, 100-fold excess of non-radiolabeled precursor)	cellular uptake of [68Ga]Ga-FAP-2286-ICG compared to [68Ga]Ga-FAP-2286 ([7]; 2 h incubation, p = 0.1945)	SUV [8] [SUV]	SUVmax of the tumor, blocking group ([9]; 60 min p.i., 50-fold molar excess of non-radiolabeled precursor pre-injected 1 h in advance, n = 3)	SUVmax of the tumor ([9]; 30 min, n = 3)	SUVmax of the tumor ([9]; 90 min, n = 3)	route of elimination (PET/CT) ([9]; mouse, in vivo)	acute toxicity ([10]; BALB/c mice, 3-week period, n = 3)	serum concentrations of AST, ALT and UREA versus control group ([10]; BALB/c mice, 3 weeks after injection, saline control, n = 3)	pathological abnormalities in major organs (H&E) ([10]; mouse, in vivo)
CC1(C)C(/C=C/C=C/C=C/C=C2\N(CCCCS(=O)(=O)O)c3ccc4ccccc4c3C2(C)C)=[N+](CCCCS(=O)(=O)[O-])c2ccc3ccccc3c21 [ICG, indocyanine green]	808	779	3.13×10^13 ± 2.21×10^12 p/sec/cm^2/sr/[μW/cm^2]	no fluorescence signals in the tumor site	5	–	–	–	–	–	–	–	–	–	–	–	–	–	–
CCCCCC(=O)N[C@H]1CSCc2cc(CSCCNC(=O)[C@H](CCCCNC(=O)CCCCCN3/C(=C/C=C/C=C/C=C/C4=[N+](CCCCS(=O)(=O)[O-])c5ccc6ccccc6c5C4(C)C)C(C)(C)c4c3ccc3ccccc43)NC(=O)CN3CCN(CC(=O)O)CCN(CC(=O)O)CCN(CC(=O)O)CC3)cc(c2)CSC[C@@H](C(=O)O)NC(=O)[C@H](Cc2ccccc2)NC(=O)[C@H](CCC(N)=O)NC(=O)[C@H]([C@@H](C)O)NC(=O)[C@@H]2CCCN2C(=O)[C@@H]2CCCN2C1=O [[^68Ga]Ga-FAP-2286-ICG, metal not drawn]	–	–	–	–	–	greater than 85%	> 85	−1.20 ± 0.18	12.00% ± 1.73 %ID	6.88% ± 0.37 %ID	no statistically significant difference	0.18 ± 0.07	0.17 ± 0.01	0.57 ± 0.10	0.58 ± 0.23	mainly eliminated through liver metabolism and kidney excretion	no evident signs of acute toxicity	did not exhibit significant changes	No significant pathological abnormalities
